One assay concerns HCV replicon genotype 1a. Kind of assay: HCV replicon assay, genotype 1a (cell ELISA for NS3/4A). The format is cell-based, hepatitis C virus. Put shortly:
(§1)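 Stable neomycin-resistant replicon cell lines (genotype 1a or 1b) incubated 96 h with compound dilution series without G418. After washing and lysis, replication measured by cell ELISA for replicon-encoded NS3/4A protein; IC50 as % of DMSO control via four-parameter fit.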

In another assay the test system is HCV replicon genotype 1b. Kind of assay: HCV replicon assay, genotype 1b (cell ELISA for NS3/4A). The format is cell-based, hepatitis C virus. In outline:
as §1

Setting [1] is: Hepatitis C virus, 96 h, read-out: 1a IC50 (nM), HCV genotype 1a replicon cells, 96 hours incubation, NS3/4A ELISA readout, % of DMSO control.
The mark [2] stands for this setting: Hepatitis C virus, 96 h, read-out: 1b IC50 (nM), HCV genotype 1b replicon cells, 96 hours incubation, NS3/4A ELISA readout, % of DMSO control.
The mark [3] stands for this setting: read-out: 1a IC50; HCV genotype 1a replicon cells, 96 hours incubation, NS3/4A ELISA readout, % of DMSO control.
The mark [4] stands for this setting: read-out: 1b IC50; HCV genotype 1b replicon cells, 96 hours incubation, NS3/4A ELISA readout, % of DMSO control.

pIC50: −log10 of the molar value. Where two headings read alike, the source gives them in different places.

Regarding `CNC(=O)c1c(-c2ccc(F)cc2)oc2cc(N(C)S(C)(=O)=O)c(C3CC(c4nc5c(F)cccc5o4)CN(C)C3)cc12` (stereo not shown) [Example 1, 5-(5-(4-fluorobenzo[d]oxazol-2-yl)-1-methylpiperidin-3-yl)-2-(4-fluorophenyl)-N-methyl-6-(N-methylmethylsulfonamido)benzofuran-3-carboxamide], the IC50 is 56.9 nM in the assay with HCV replicon genotype 1a (setting [1]) and 34.3 nM with HCV replicon genotype 1b (setting [2]).
Turning to `CNC(=O)c1c(-c2ccc(F)cc2)oc2cc(N(C)S(C)(=O)=O)c([C@H]3CCCN(S(=O)(=O)c4cccc(C)c4)C3)cc12` [Example 142, 2-(4-fluorophenyl)-N-methyl-6-[methyl(methylsulfonyl)amino]-5-{(3R)-1-[(3-methylphenyl)sulfonyl]piperidin-3-yl}-1-benzofuran-3-carboxamide], the IC50 was determined as 198 nM with HCV replicon genotype 1a (setting [1]) and 91.7 nM in the assay on HCV replicon genotype 1b (setting [2]).
Regarding `CNC(=O)c1c(-c2ccc(F)cc2)oc2cc(N(C)S(C)(=O)=O)c([C@@H]3CCCN(C(=O)c4coc(-c5ccc(F)cc5)n4)C3)cc12` [Example 72, 2-(4-fluorophenyl)-5-(1-{[2-(4-fluorophenyl)-1,3-oxazol-4-yl]carbonyl}piperidin-3-yl)-N-methyl-6-[methyl(methylsulfonyl)amino]-1-benzofuran-3-carboxamide], the IC50 in the assay with HCV replicon genotype 1a (setting [1]) was 125 nM; in the assay on HCV replicon genotype 1b (setting [2]), 23.6 nM.
In the case of `CNC(=O)c1c(-c2ccc(F)cc2)oc2cc(N(C)S(C)(=O)=O)c(C3CNCC(c4cc5c(F)cccc5[nH]4)N3)cc12` (stereo not shown) [Example 13, 5-(6-(4-fluoro-1H-indol-2-yl)piperazin-2-yl)-2-(4-fluorophenyl)-N-methyl-6-(N-methylmethylsulfonamido)benzofuran-3-carboxamide], the values for the IC50 with HCV replicon genotype 1a (setting [1]) and in the assay with HCV replicon genotype 1b (setting [2]) were 140 nM and 165 nM, respectively.
Consider `CNC(=O)c1c(-c2ccc(F)cc2)oc2cc(N(C)S(C)(=O)=O)c([C@H]3CCCN(S(=O)(=O)/C=C/c4ccccc4)C3)cc12` [Example 79, 2-(4-fluorophenyl)-N-methyl-6-[methyl(methylsulfonyl)amino]-5-[(3R)-1-{[(E)-2-phenylethenyl]sulfonyl}piperidin-3-yl]-1-benzofuran-3-carboxamide], for which the IC50 in the assay on HCV replicon genotype 1a (setting [1]) came out at 64.8 nM; in the assay with HCV replicon genotype 1b (setting [2]) it was 33.1 nM.
`CNC(=O)c1c(-c2ccc(F)cc2)oc2cc(N(C)S(C)(=O)=O)c([C@@H]3CCCN(c4nc5cc(F)ccc5o4)C3)cc12` (single isomer, unassigned) [Example 52]: the IC50 with HCV replicon genotype 1a (setting [1]) came out at 32.6 nM; with HCV replicon genotype 1b (setting [2]) it was 42.6 nM.
The like results for `CNC(=O)c1c(-c2ccc(F)cc2)oc2cc(N(C)S(C)(=O)=O)c([C@H]3CCCN(S(=O)(=O)c4cc5ccccc5o4)C3)cc12` [Example 83, 5-[(3R)-1-(1-benzofuran-2-ylsulfonyl)piperidin-3-yl]-2-(4-fluorophenyl)-N-methyl-6-[methyl(methylsulfonyl)amino]-1-benzofuran-3-carboxamide] were, in that order, 38.2 nM and 22.4 nM.
In the case of `CNC(=O)c1c(-c2ccc(F)cc2)oc2cc(N(C)S(C)(=O)=O)c([C@@H]3CCCN(S(=O)(=O)c4ccc5c(c4)CC(=O)N5)C3)cc12` [Example 122, 2-(4-fluorophenyl)-N-methyl-6-[methyl(methylsulfonyl)amino]-5-{(3S)-1-[(2-oxo-2,3-dihydro-1H-indol-5-yl)sulfonyl]piperidin-3-yl}-1-benzofuran-3-carboxamide], the IC50 with HCV replicon genotype 1a (setting [1]) turned out to be 78.8 nM; in the assay on HCV replicon genotype 1b (setting [2]), 22.1 nM.
The like results for `CNC(=O)c1c(-c2ccc(F)cc2)oc2cc(N(C)S(C)(=O)=O)c([C@@H]3CCCN(c4nc5ncccc5o4)C3)cc12` (single isomer, unassigned) [Example 53, 2-(4-fluorophenyl)-N-methyl-6-(N-methylmethylsulfonamido)-5-(1-(oxazolo[4,5-b]pyridin-2-yl)piperidin-3-yl)benzofuran-3-carboxamide] were, in that order, 14.6 nM and 15.7 nM.
Consider `CNC(=O)c1c(-c2ccc(F)cc2)oc2cc(N(C)S(C)(=O)=O)c([C@H]3CCCN(C(=O)c4nn(C)c(=O)c5ccccc45)C3)cc12` [Example 96, 2-(4-fluorophenyl)-N-methyl-6-[methyl(methylsulfonyl)amino]-5-{(3R)-1-[(3-methyl-4-oxo-3,4-dihydrophthalazin-1-yl)carbonyl]piperidin-3-yl}-1-benzofuran-3-carboxamide], for which the IC50 is 423 nM with HCV replicon genotype 1a (setting [1]) and 219 nM in the assay with HCV replicon genotype 1b (setting [2]).
As to `CNC(=O)c1c(-c2ccc(F)cc2)oc2cc(N(C)S(C)(=O)=O)c([C@@H]3CCCN(C(=O)Cc4ccc(F)cc4)C3)cc12` (single isomer, unassigned) [Example 18, 2-(4-fluorophenyl)-5-(1-(2-(4-fluorophenyl)acetyl)piperidin-3-yl)-N-methyl-6-(N-methylmethylsulfonamido)benzofuran-3-carboxamide], the results for the pIC50 with HCV replicon genotype 1a (setting [3]) and in the assay on HCV replicon genotype 1b (setting [4]) were 6.73 and 7.14, respectively.
With `CNC(=O)c1c(-c2ccc(F)cc2)oc2cc(N(C)S(C)(=O)=O)c([C@H]3CCCN(S(=O)(=O)Cc4cccnc4)C3)cc12` [Example 140, 2-(4-fluorophenyl)-N-methyl-6-[methyl(methylsulfonyl)amino]-5-{(3R)-1-[(pyridin-3-ylmethyl)sulfonyl]piperidin-3-yl}-1-benzofuran-3-carboxamide], the IC50 with HCV replicon genotype 1a (setting [1]) is 20.5 nM; with HCV replicon genotype 1b (setting [2]), 16.5 nM.
Consider `CNC(=O)c1c(-c2ccc(F)cc2)oc2cc(N(C)S(C)(=O)=O)c(C3CCCN(c4nc5cc(F)ccc5o4)C3)cc12` (stereo not shown) [Example 51], for which the pIC50 is 8.30 in the assay with HCV replicon genotype 1a (HCV genotype 1a replicon cells, 96 hours incubation, NS3/4A ELISA readout, % of DMSO control; read-out: 1a IC50) and 8.15 with HCV replicon genotype 1b (HCV genotype 1b replicon cells, 96 hours incubation, NS3/4A ELISA readout, % of DMSO control; read-out: 1b IC50).
Regarding `CNC(=O)c1c(-c2ccc(F)cc2)oc2cc(N(C)S(C)(=O)=O)c([C@@H]3CCCN(S(=O)(=O)c4cccc5nonc45)C3)cc12` [Example 120, 5-[(3S)-1-(2,1,3-benzoxadiazol-4-ylsulfonyl)piperidin-3-yl]-2-(4-fluorophenyl)-N-methyl-6-[methyl(methylsulfonyl)amino]-1-benzofuran-3-carboxamide], the IC50 with HCV replicon genotype 1a (setting [1]) is 22.4 nM; in the assay with HCV replicon genotype 1b (setting [2]), 8.37 nM.
With `CNC(=O)c1c(-c2ccc(F)cc2)oc2cc(N(C)S(C)(=O)=O)c([C@@H]3CCCN(C(=O)C4CC4c4ccccn4)C3)cc12` (stereo partly shown) [Example 78, 2-(4-fluorophenyl)-N-methyl-6-[methyl(methylsulfonyl)amino]-5-{1-[(2-pyridin-2-ylcyclopropyl)carbonyl]piperidin-3-yl}-1-benzofuran-3-carboxamide], the negative-log IC50 (pIC50) with HCV replicon genotype 1a (setting [3]) is 6.61; with HCV replicon genotype 1b (setting [4]), 7.09.
For `CNC(=O)c1c(-c2ccc(F)cc2)oc2cc(N(C)S(C)(=O)=O)c([C@H]3CN(C(=O)c4cc5cccc(F)c5[nH]4)CCO3)cc12` (single isomer, unassigned) [Example 7, 5-(4-(7-fluoro-1H-indole-2-carbonyl)morpholin-2-yl)-2-(4-fluorophenyl)-N-methyl-6-(N-methylmethylsulfonamido)benzofuran-3-carboxamide], the pIC50 was 8.24 in the assay on HCV replicon genotype 1a (setting [3]) and 7.94 with HCV replicon genotype 1b (setting [4]).
As to `CNC(=O)c1c(-c2ccc(F)cc2)oc2cc(N(C)S(C)(=O)=O)c([C@H]3CCCN(C(=O)Cc4ccc5nccnc5c4)C3)cc12` [Example 95, 2-(4-fluorophenyl)-N-methyl-6-[methyl(methylsulfonyl)amino]-5-[(3R)-1-(quinoxalin-6-ylacetyl)piperidin-3-yl]-1-benzofuran-3-carboxamide], the IC50 in the assay with HCV replicon genotype 1a (setting [1]) is 176 nM; with HCV replicon genotype 1b (setting [2]), 106 nM.

Values taken from patent US9549921B2, “Heterocyclic compounds and methods of use thereof for the treatment of hepatitis C” (priority 2014, dated 2017).
